The text below walks through data of patent US20050020646A1, “Treatment of BPH” (Pfizer Inc., priority 2003, published 2005).

The structures appear in SMILES notation.

Assay [1] relates to rat spinal cord injury model of overactive bladder. To be noted: cited from earlier work.
The subject of assay [2] is bladder function of wild type (WT) and EP1 knockout (EP1KO) mice. Put plainly: Cystometry in conscious mice under intravesical instillation of PGE2. The class given is in vivo, mouse. To be noted: intravesical instillation of PGE2 (20 μM). Here is the method: Animals: Age-matched female EP1 knockout (EP1KO) mice (DBA/1LacJ background) (n=13) and DBA/1LacJ wild type (WT) controls (n=12) were used for the studies. The knockout mice originated from Groton Laboratories, Pfizer Research and Development, the wild type from the Jackson Laboratories, USA. Both strains were delivered through Charles River Laboratories, UK. After arrival, the mice were housed for 6 weeks under identical conditions under a 12 hours light/dark photocycle, food and water were provided ad libitum. The experimental protocol was approved by the Animals Ethics Committee, Lund University.
The knockout and WT mice were randomly divided into 3 groups each. One third received bladder outlet obstruction (BOO) as described below, one third received sham surgery. The remaining mice served as unoperated controls.
At day 5 after the obstruction a polyethylene catheter (PE, ID 0.38 mm, OD 0.61 mm) with a small cuff was inserted in the bladder dome and secured with a purse-string suture (7-0 silk). The obstructing ligature remained in place. The catheter was tunneled subcutaneously, led out on the back of the neck, and surgically secured. Control animals received the bladder catheter 2 days prior to cystometry.
Cystometry: Two days after insertion of the catheter (7 days after creation of the obstruction), the cystometric investigation was performed without any anesthesia or restraint. The mice were placed into a metabolic cage (Gazzada, Buguggiatade, Italy). The bladder catheter was connected to a pressure transducer, which in turn was connected to a Grass® 7E Polygraph recorder. The bladder was continuously filled with saline at room temperature by means of a microinjecton pump (CMA 100, Carnegie Medicine, Solna, Sweden), at a filling speed of 25 μl/min.
The amount of voided urine was measured by means of a fluid collector, connected to a force displacement transducer (FT 03 D; Grass instrument Co., MA, USA). After a stabilization period of 60-80 minutes, in which the bladder was continuously filled, reproducible voiding patterns were achieved and recorded over a period of 30 minutes. The following parameters were measured: Micturition interval (time between 2 voids), baseline pressure (lowest pressure between 2 voids), threshold pressure (pressure immediately before micturition was initiated), micturition pressure (maximum voiding pressure), and micturition volume. Residual urine was emptied manually 3 times at the end of the cystometry and measured. Bladder capacity was calculated as the amount of saline infused into the bladder between 2 voids, plus the average amount of residual urine.
The animals were continuously observed in order to distinguish between moving artifacts and non-voiding bladder contractions. The surface of the collecting-funnel under the grid of the metabolic cage was sprayed with a thin layer of silicone.
Drugs and solutions: PGE2 (Sigma Chemical Company, St. Louis, Mo., USA). PGE2 was dissolved in ethanol, and the stock solution was stored at a concentration of 10^−2 M at −70°. The final dilution of 20 μM was made in NaCl at the day of cystometry. (Normal Krebs solution was composed as following (mM): NaCl 119, KCl 4.6, CaCl2 1.5, MgCl2 1.2, NaHCO3 15, NaH2PO4 1.2, and glucose 11).
Data analysis: All values are reported as the mean±SEM. Statistical significance was determined by Student's t-test and Bonferroni correction as appropriate. P<0.05 was required for statistical significance.

A further assay has as its system human bladder. To be noted: human volunteers, intravesical administration; cited from earlier work.
In another assay the test system is rat bladder. To be noted: rats, topical administration; cited from earlier work.
For another assay, the system named is bladder of normal rats. Conditions: cited from earlier work.

On to `Cc1cc(Cl)ccc1S(=O)(=O)NC[C@H]1C2CCC(CC2)[C@@H]1/C=C\CCCC(=O)O` [ONO-8711], for which, in assay [1], the bladder overactivity result was “reduction in bladder overactivity”.

As for `CCCCC[C@H](O)/C=C/[C@H]1[C@H](O)CC(=O)[C@@H]1C/C=C\CCCC(=O)O` [PGE2, prostaglandin E2], in assay [2] (EP1 KO control mice), the bladder capacity entry was “no effect”, the “induction of non-voiding contractions” value is “no induction of non-voiding contractions”, the micturition interval result was “no effect” and the micturition volume result is on record as “no effect”. Besides, in assay [2] (WT control mice), the bladder capacity result is reported as “decreased”, the micturition interval entry was “decreased”, the micturition volume result was “decreased” and the non-voiding contractions entry is on record as “Frequent non-voiding contractions of high amplitude occurred”. For the same compound, in the assay with human bladder, the bladder capacity result is “decreased bladder capacity” and the sensations of urgency entry was “gave rise to sensations of urgency”. Besides, the “bladder activity and reflex micturition” value in the assay with rat bladder is “bladder hyperactivity and stimulation of reflex micturition”.

As for `CC(=O)NNC(=O)N1Cc2ccccc2Oc2ccc(Cl)cc21` [SC-19220], the bladder capacity result in the assay on bladder of normal rats is listed as “increased bladder capacity”.
